Inhibition and inhibition data for 3 compounds are collected here from ChEMBL document CHEMBL1147515, “Nickel(II) and cobalt(II) complexes of hydroxyl-substituted triazamacrocyclic ligand as potential antitumor agents” (2004).

The subject of experiment [1] is HXO-RB44 cell line. In words: Percentage of growth inhibition of HXO-RB44 cells treated for 48 hr at 10E-5 M/L and incubated with 5 g/L MTT for 4 h. Type of experiment: functional, Homo sapiens. The note with it: for inhibition: Homo sapiens.
The test system of experiment [2] is Bel-7402. The experiment in a line: Percentage of growth inhibition of BEL-7402 cells treated for 48 hr at 10E-4 M/L and incubated with 5 g/L MTT for 4 h. The settings on record: for inhibition: Homo sapiens. Type of experiment: functional, Homo sapiens.
The test system of experiment [3] is HXO-RB44 cell line. In words: Percentage of growth inhibition of HXO-RB44 cells treated for 48 hr at 10E-6 M/L and incubated with 5 g/L MTT for 4 h. Type of experiment: functional, Homo sapiens. The note with it: for inhibition: Homo sapiens.
The test system of experiment [4] is HXO-RB44 cell line. In words: Percentage of growth inhibition of HXO-RB44 cells treated for 48 hr at 10E-4 M/L and incubated with 5 g/L MTT for 4 h. Type of experiment: functional, Homo sapiens. The settings on record: for inhibition: Homo sapiens.
For experiment [5], the system named is Bel-7402. The experiment in a line: Percentage of growth inhibition of BEL-7402 cells treated for 48 hr at 10E-3 M/L and incubated with 5 g/L MTT for 4 h. The settings on record: for inhibition: Homo sapiens. Format: functional, Homo sapiens.
Experiment [6] concerns Bel-7402. In words: Percentage of growth inhibition of BEL-7402 cells treated for 48 hr at 10E-5 M/L and incubated with 5 g/L MTT for 4 h. Type of experiment: functional, cell-based. The note with it: Homo sapiens.

Broadly, the Inhibition is the relative decrease from the control value, in per cent. A high value points to a response far below the control. Turning to `OC1CNCCNCCNC1`, the Inhibition in the experiment on HXO-RB44 cell line [1] is reported as 3%; in the experiment with Bel-7402 [2] it was 16%; with HXO-RB44 cell line [3], 1%; in the experiment on HXO-RB44 cell line [4], 3%; with Bel-7402 [5], 34%.
A word on the inhibition: it is the share of the control response that was lost under treatment. Take COBALT (II) ION: the inhibition with Bel-7402 [6] came to 0%; in the experiment with HXO-RB44 cell line [1], 3%; in the experiment on Bel-7402 [2], 5%; in the experiment with HXO-RB44 cell line [3], 3%; in the experiment with HXO-RB44 cell line [4], 7%; in the experiment on Bel-7402 [5], 79%.
Regarding COPPER, the inhibition in the experiment on Bel-7402 [6] was 2%; with HXO-RB44 cell line [1], 3%; in the experiment on Bel-7402 [2], 3%; with HXO-RB44 cell line [3] it was 0%; in the experiment on HXO-RB44 cell line [4], 5%; in the experiment with Bel-7402 [5], 81%.
